Assay results: patent publication US8158621B2, “Methods of treating or preventing autoimmune diseases with 2,4-pyrimidinediamine compounds” (Rigel Pharmaceuticals, Inc., priority 2002, dated 2012)
Where “and” joins values, the source holds several entries; their conditions need not be identical. Identical values can stand only once.

Experiments:
[1] = biological target: T1, Syk kinase (Homo sapiens, UniProt P43405); assay: Syk kinase biochemical fluorescence polarization assay; settings: isolated Syk kinase, fluorescence polarization, 4 uM ATP
T1 construct: purchased Upstate, Lake Placid NY

[2] = test system: bone marrow derived mast cells (BMMC); assay: BMMC high cell density IgE activation: IL-6; assay type: cell-based, mouse; settings: high cell density; read-out: BMMC anti-IgE IL-6
Procedure: (§1) After sensitizing, cells are counted, pelleted (1000 rpm, 5-10 minutes), and resuspended at 1-3×10^6 cells/ml in MT buffer. Add 100 ul of cell suspension to each well and 100 ul of compound dilutions. The final vehicle concentration is 0.5% DMSO. Incubate at 37° C. (5% CO2) for 1 hour. After 1 hour of compound treatment, stimulate cells with 6× stimulus (60 ng/ml DNP-BSA). Mix wells with the cells and allow plates to incubate at 37° C. (5% CO2) for one hour. After 1 hour incubation, pellet cells (10 minutes, 1000 RPM) and collect 200 ul per well of the supernatant, being careful not to disturb pellet, and transfer to a clean tube or 96-well plate. Place the supernatant plate on ice. During the 4-5 hour step (see next) perform the hexosiminidase assay. Resuspend cell pellet in 240 ul WEI-conditioned media containing 0.5% DMSO and corresponding concentration of compound. Incubate BMMC cells for 4-5 hours at 37° C. (5% CO2). After incubation, pellet cells (1000 RPM, 10 minutes) and collect 225 ul per well and place in −80° C. until ready to perform ELISAS. ELISAS are performed on appropriately diluted samples (determined empirically for each donor cell population so that the sample measurement falls within the standard curve) following the supplier's instructions.

[3] = test system: bone marrow derived mast cells (BMMC); assay: BMMC high cell density IgE activation: TNFalpha; assay type: cell-based, mouse; settings: high cell density; read-out: BMMC anti-IgE TNF-alpha
Procedure: as §1

[4] = test system: differentiated human macrophages; assay: Macrophage activation, IgG stimulation: IL-6; assay type: cell-based; settings: stimulus (IgG or LPS) not given; read-out: Monocytes/Macrophage IL-6 IC50
Procedure: CD 14+ monocytes were purified from PBMC (Allcells # PB002) using the Monocyte Isolation kit (Miltenyi biotec #130-045-501) as per the manufacturer's instructions. Purity was assessed by measuring the percentage of CD14+ cells by flow cytometry. Typically >90% purity is achieved. The purified CD14+ cells are then plated out (6×10^6 cells/150 cm TC dish in 15 mls media) in Macrophage-SFM (Gibco #12065-074) with 100 ng/ml of M-CSF (Pepro Tech #300-25) and allowed to differentiate for five days. At the end of that period, cell morphology and cell surface markers (CD14, HLA-DR, B7.1, B7.2, CD64, CD32, and CD16) reflected the presence of mature differentiated macrophage.
(§2) A negative control consisting of the F(ab′)2 fragment was also coated to assess background stimulation. Unbound antibody was washed away 2× with 200 ul PBS. 20 ul of 5× compound was added to each well, followed by the addition 15 k cells of differentiated macrophage in 80 uL that had been scraped off of the plates. The cells were incubated for 16 hr in a 37° C. incubator, and supernatants were collected for Luminex analysis for IL-6 and TNFα, essentially as described for the primary T-cells, above.
Varied concentrations of compound were compared to solvent only to determine the IC50 of each compound for each cytokine Representative IC50 s for 2,4-pyrimidinediamine compounds of the invention are shown in Table 11.

[5] = test system: Human Jurkat T-cells (clone N); assay: Jurkat T-cell activation (anti-TCR, CD69 upregulation); assay type: cell-based
In short: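 Readout is CD69 upregulation by flow cytometry (anti-CD69-APC, 20 min at 4 °C) after 20 h anti-TCR (C305, 500 ng/ml) stimulation at 37 °C.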

[6] = test system: differentiated human macrophages; assay: Macrophage activation, IgG stimulation: TNF; assay type: cell-based; settings: stimulus (IgG or LPS) not given; read-out: Monocytes/Macrophage TNF IC50
Procedure: Purity was assessed by measuring the percentage of CD14+ cells by flow cytometry.
as §2, with “20 ul of 5× compound was added to each well, followed by the addition 15 k cells of differentiated macrophage in 80 uL that had been scraped off of the plates.” left out

[7] = test system: cultured human mast cells (CHMC); assay: CHMC low cell density ionomycin activation: tryptase assay; assay type: cell-based; settings: low cell density; read-out: CHMC Ionomycin Tryptase
[8] = test system: bone marrow derived mast cells (BMMC); assay: BMMC high cell density IgE activation: hexosaminidase; assay type: cell-based, mouse; settings: high cell density; read-out: BMMC anti-IgE Hexos.
Procedure: as §1
Add 50 uL of BMMC cell supernatant (see above) to the hexoseaminidase substrate, place at 37° C. for 30 minutes and read the plate at 5, 10, 15, and 30 minutes on a spectrophotometer.

[9] = test system: cultured human mast cells (CHMC); assay: CHMC low cell density IgE activation: tryptase assay; assay type: cell-based; settings: low cell density; read-out: CHMC anti-IgE Tryptase
In short: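 Degranulation is read as supernatant tryptase activity, using tryptase substrate incubated 30 min at room temperature. Before this, CHMC at low density (1000-1500 cells/well) rest 1 hr at 37° C and are triggered with anti-IgE for 30 min at 37° C.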

[10] = Mouse Reverse Passive Arthus reaction (RPA reaction); assay type: in vivo, C57BL/6 mice; settings: oral, 200 mg/kg
In short: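 C57BL/6 mice dosed with compound before challenge, pretreatment time set by each compound's PK; rabbit anti-OVA IgG (50 μg/mouse) given intradermally, then ovalbumin 20 mg/kg i.v. with 1% Evans blue. Dorsal skin edema and hemorrhage read by dye extravasation at 4 h; purified polyclonal rabbit IgG as control.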

[11] = test system: Primary human B-cells; assay: Primary B-cell activation (α-IgM, CD69 upregulation); assay type: cell-based; settings: read-out: 1° B-Cell CD69 IC50
Procedure: Primary human B-cells were isolated from buffy coat, the white cell layer that forms between the red cells and the […] when anti-coagulated blood is centrifuged, or from fresh blood using CD19-Dynal® beads and a FACS. Buffy coat was obtained from the Stanford Medical School Blood Centre, prepared on the same day by the blood bank, stored and transported cold (with ice). The buffy coat (approx 35 mL) was placed in a 500 mL conical sterile centrifuge pot and cooled on ice, then diluted with cold PBS containing 0.2% BSA (Sigma: A7638) and sodium citrate (0.1%, Sigma: S-5570) (P—B—C) to a total volume of 200 mL and mixed gently. Fresh blood was collected from donors in 10 mL vacutainers containing heparin (1 vacutainer collects approximately 8.5 mL blood). The blood was cooled on ice, transferred into 50 mL falcon tubes (20 mL/tube) or a 500 mL conical sterile centrifuge pot, and diluted with an equal volume P—B—C.
25 mL diluted blood or buffy coat was layered onto 15 mL cold ficoll and placed back on ice. The ficoll layered blood was centrifuged (Beckman GS-6R) for 45 minutes at 2000 rpm, 4° C. to separate the Peripheral Blood Mononuclear Cells (PBMC) from the Red Blood Cells (RBC) and granulocytes. The top aqueous layer was then aspirated until 1 inch above the PBMC layer. The PBMCs were transferred from every 2 ficoll tubes into one clean 50 mL falcon tube (=approx 10 mL/tube). The transferred PBMCs were diluted 5× with icecold PBS with 0.2% BSA (P—B) and centrifuged for 20 min at 1400 rpm and 4° C. The supernatant (this may be cloudy) was then aspirated and the PBMCs resuspended into 25 mL P—B and the cells counted (using a 1:5 dilution) and kept on ice.
The cells were then positively selected using anti-CD 19 antibody coupled to magnetic beads (Dynal®) as per manufacturer's instructions. The approximate required amount of CD19-Dynal® beads (CD19-coated dyna beads M-450 (pabB), Dynal®) was calculated by estimating the number of B-cells as 5% of PBMCs counted and adding approximately10 beads per cell from the bead stock (4×10^8 beads/mL). The CD19-Dynal® beads were washed 2× in P—B in a 5 mL tube using the Dynal® magnet, then added into the suspended PBMCs. This mixture was then passed through the Dynal® magnet and washed several times to separate the bead-bound cells.
After separation, the beads and antibody were removed using Dynal® CD19-DETACHaBEAD® for 45 min at 30° C. Yield is typically 2×10^7 B-cells per buffy coat. B-cells were washed and resuspended as 1E6 cells/mL in RPMI1640+10% FBS+Penicillin/[…]+1 ng/mL IFNα8. Cells were rested overnight at 37° C. and 5% CO2.
The following day, cells were washed and resuspended in RPMI+2.5% FBS to 1×10^6 cells/mL. Cells were then aliquoted into a V-bottom 96-well plate (Corning) at 65 uL cells per well. By robot, 65 uL of a 2× compound was added to the cells with final concentration of DMSO at 0.2%, and incubated for 1 hr at 37° C. Cells were then stimulated with 20 uL 7.5× α-IgM from Jackson laboratories (final 5 ug/mL) for 24 hrs. At day 3, the cells were spun down and stained for CD69 and analyzed by FACS gated on the live cells (by light scatter).
Varied concentrations of compound were compared to solvent only to determine the inhibition of B-cell activation IC50 of each compound.

| SMILES | IC50 [1] | IC50 [2] | IC50 [3] | IC50 [4] | IC50 [5] | IC50 [6] | IC50 [7] | IC50 [8] | IC50 [9] | inhibition of edema formation ([10]; 60 minutes prior to challenge) | % inhibition to vehicle control Edema Size ± SEM ([10]; pretreatment time 0.5 hrs) | % inhibition to vehicle control Edema Size ± SEM ([10]; pretreatment time 1 hrs) | % inhibition to vehicle control Edema Size ± SEM ([10]; pretreatment time 1.5 hrs) | IC50 [11] |
| --- | --- | --- | --- | --- | --- | --- | --- | --- | --- | --- | --- | --- | --- | --- |
| COc1ccc(Nc2ncc(F)c(Nc3ccc4c(c3)NC(=O)[C@@H](C)O4)n2)cc1Cl [Compound R909322] | 141 nM | 100 nM | 140 nM | 839 nM | 3030 nM | 1260 nM | > 10 µM | 240 nM | 225 nM | – | – | – | – | – |
| CNC(=O)COc1cccc(Nc2ncc(F)c(Nc3ccc(OC)c(Cl)c3)n2)c1 [Compound R926891] | – | – | – | 942 nM | 1550 nM | 1140 nM | – | – | – | 54.9% | 44.8 ± 3.0% | 46.2 ± 4.1% and 54.9% | 28.1 ± 10.6% | 803 nM |
| COc1ccc(Nc2nc(Nc3ccc4cc[nH]c4c3)ncc2F)cc1Cl [Compound R926976] | 421 nM | 250 nM | 110 nM | 7620 nM | – | 4370 nM | 8.3 µM | 590 nM | 305 nM | – | – | – | – | – |
| Cc1cccc(C)c1Nc1ncc(F)c(Nc2ccc3c(c2)NC(=O)C(C)(C)O3)n1 [Compound R927069] | 111 nM | 1090 nM | 930 nM | 5650 nM | 930 nM | 8500 nM | 13 µM | 1350 nM | 76 nM | – | – | – | – | – |
| Cn1ncc2ccc(Nc3ncc(F)c(Nc4ccc5c(c4)NC(=O)C(C)(C)O5)n3)cc21 [Compound R940366] | 3 nM | 10 nM | 5 nM | 97 nM | 86 nM | 86 nM | 40 µM | 30 nM | 37 nM | – | – | – | – | – |
